Measurements as given in PMC6934184, “Selective DNA-PKcs inhibition extends the therapeutic index of localized radiotherapy and chemotherapy” (The Journal of Clinical Investigation, 2019).

Molecular target: T1, MAPK12 (p38 gamma) (Homo sapiens, UniProt P53778)
T1 construct: purchased Thermo Fisher Scientific (Life Technologies) SelectScreen
Test: SelectScreen Z'LYTE
Type: biochemical
In short: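 Percent values come from Thermo SelectScreen profiling of NU5455, combining activity and binding assays. CSF1R was run in Z'LYTE format at Km app ATP, and CAMK1 in Adapta format with ATP listed at 10.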

T1 sequence (P53778 whole entry): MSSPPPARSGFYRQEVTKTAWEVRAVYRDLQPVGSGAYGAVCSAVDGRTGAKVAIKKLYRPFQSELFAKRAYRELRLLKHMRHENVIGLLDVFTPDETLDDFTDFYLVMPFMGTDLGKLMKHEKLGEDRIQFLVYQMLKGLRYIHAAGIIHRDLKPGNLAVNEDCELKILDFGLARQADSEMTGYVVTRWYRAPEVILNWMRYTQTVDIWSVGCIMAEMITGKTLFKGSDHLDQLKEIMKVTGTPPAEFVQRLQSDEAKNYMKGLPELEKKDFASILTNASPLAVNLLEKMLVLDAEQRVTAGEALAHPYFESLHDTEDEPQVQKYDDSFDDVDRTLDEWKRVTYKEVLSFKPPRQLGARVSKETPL

## CN(C(=O)CN1CCOCC1)c1ccc2sc3c(-c4cccc5c(=O)cc(N6CC7CCC(C6)O7)oc45)cccc3c2c1 [NU5455]
  inhibition at 1 µM: -0.8%
